{"source": "paper doi:10.1101/2024.09.20.614085v3", "about": "(biorxiv, 2026)", "molecular_target": "SARS-CoV-2 RdRp (nsp12-nsp7-nsp8 complex) (Severe acute respiratory syndrome coronavirus 2, UniProt P0DTD1)", "assay": "biochemical", "data": [{"compound": "O=c1ccn([C@@H]2O[C@H](COP(=O)(O)OP(=O)(O)OP(=O)(O)O)C[C@H]2O)c(=O)[nH]1", "note": "[3’-dUTP]", "values": [{"measurement": "EC50", "result": 751, "unit": "nM"}]}, {"compound": "Cc1cn([C@@H]2O[C@H](COP(=O)(O)OP(=O)(O)OP(=O)(O)O)C[C@H]2O)c(=O)[nH]c1=O", "note": "[5-methyl-3’-dUTP]", "values": [{"measurement": "EC50", "result": 107, "unit": "nM"}]}, {"compound": "O=c1ccn([C@@H]2O[C@H](COP(=O)(O)OP(=O)(O)OP(=O)(O)O)[C@@H](O)[C@H]2O)c(=O)[nH]1", "note": "[UTP]", "values": [{"measurement": "EC50", "result": 47.9, "unit": "nM"}]}]}
